The record followed here is patent US20230219986A1, “NOVEL AMINOPYRIMIDINE EGFR INHIBITOR” (QILU PHARMACEUTICAL CO., LTD., priority 2020, published 2023).

Where two headings read alike, the source gives them in different places.

For one assay, the target named is T1, wild-type EGFR (Homo sapiens, UniProt P00533).
T1 construct: purchased Signalchem
As to the kind of experiment: Enzymology experiment in vitro (HTRF/FRET kinase activity), wild-type EGFR. It counts as biochemical. As to conditions: HTRF KinEASE-TK, read-out: EGFR (WT) IC50. An outline of the steps:
(§1)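 HTRF KinEASE-TK format: EGFR enzyme preincubated with compound 10 min at room temperature, then peptide substrate plus ATP added for 40 min. Detection with EDTA, XL665-streptavidin and Eu³⁺-labeled antibody for 1 h.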

In assay [1] the test system is EGFR wild-type cell line A431. Put plainly: Cell proliferation inhibition experiment (CellTiter-Glo), A431. As to conditions: A431 cells, Cell Titer-Glo, read-out: A431 EGFR WT IC50. The format is cell-based. The gist of the method: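 A431 cells, 800 per well, were cultured 24 h and then exposed to serially diluted compound (0.1% DMSO final) for 72 h at 37° C., 5% CO2.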

Assay [2] addresses T2, L858R/T790M/C797S triple mutant EGFR (Homo sapiens, UniProt P00533, C797S/L858R/T790M).
T2 construct: purchased Signalchem
Put plainly: Enzymology experiment in vitro (HTRF/FRET kinase activity), L858R/T790M/C797S triple mutant EGFR. It counts as biochemical. As to conditions: HTRF KinEASE-TK, read-out: EGFR (L858R/T790M/C797S) IC50. The gist of the method:
as §1

Assay [3] addresses Ba/F3 L858R/T790M/C797S EGFR triple mutant cell line (Homo sapiens, UniProt P00533, T790M/C797S/L858R, cells depend on it). As to the kind of experiment: Cell proliferation inhibition experiment (CellTiter-Glo), Ba/F3 L858R/T790M/C797S. It counts as cell-based. The settings on record: 72 hours, Cell Titer-Glo, read-out: Ba/F3 (L858R/T790M/C797S) IC50.
Assay [4] addresses Ba/F3 De119/T790M/C797S EGFR triple mutant cell line (Homo sapiens, UniProt P00533, T790M/C797S, cells depend on it, form not given). Put plainly: Cell proliferation inhibition experiment (CellTiter-Glo), Ba/F3 De119/T790M/C797S. The settings on record: Ba/F3 Del19/T790M/C797S EGFR triple mutant cells, 72 hours, Cell Titer-Glo; read-out: Ba/F3 (Del19/T790M/C797S) IC50. It counts as cell-based.

Chain of Ba/F3 L858R/T790M/C797S EGFR triple mutant cell line (P00533 whole entry T790M/C797S/L858R): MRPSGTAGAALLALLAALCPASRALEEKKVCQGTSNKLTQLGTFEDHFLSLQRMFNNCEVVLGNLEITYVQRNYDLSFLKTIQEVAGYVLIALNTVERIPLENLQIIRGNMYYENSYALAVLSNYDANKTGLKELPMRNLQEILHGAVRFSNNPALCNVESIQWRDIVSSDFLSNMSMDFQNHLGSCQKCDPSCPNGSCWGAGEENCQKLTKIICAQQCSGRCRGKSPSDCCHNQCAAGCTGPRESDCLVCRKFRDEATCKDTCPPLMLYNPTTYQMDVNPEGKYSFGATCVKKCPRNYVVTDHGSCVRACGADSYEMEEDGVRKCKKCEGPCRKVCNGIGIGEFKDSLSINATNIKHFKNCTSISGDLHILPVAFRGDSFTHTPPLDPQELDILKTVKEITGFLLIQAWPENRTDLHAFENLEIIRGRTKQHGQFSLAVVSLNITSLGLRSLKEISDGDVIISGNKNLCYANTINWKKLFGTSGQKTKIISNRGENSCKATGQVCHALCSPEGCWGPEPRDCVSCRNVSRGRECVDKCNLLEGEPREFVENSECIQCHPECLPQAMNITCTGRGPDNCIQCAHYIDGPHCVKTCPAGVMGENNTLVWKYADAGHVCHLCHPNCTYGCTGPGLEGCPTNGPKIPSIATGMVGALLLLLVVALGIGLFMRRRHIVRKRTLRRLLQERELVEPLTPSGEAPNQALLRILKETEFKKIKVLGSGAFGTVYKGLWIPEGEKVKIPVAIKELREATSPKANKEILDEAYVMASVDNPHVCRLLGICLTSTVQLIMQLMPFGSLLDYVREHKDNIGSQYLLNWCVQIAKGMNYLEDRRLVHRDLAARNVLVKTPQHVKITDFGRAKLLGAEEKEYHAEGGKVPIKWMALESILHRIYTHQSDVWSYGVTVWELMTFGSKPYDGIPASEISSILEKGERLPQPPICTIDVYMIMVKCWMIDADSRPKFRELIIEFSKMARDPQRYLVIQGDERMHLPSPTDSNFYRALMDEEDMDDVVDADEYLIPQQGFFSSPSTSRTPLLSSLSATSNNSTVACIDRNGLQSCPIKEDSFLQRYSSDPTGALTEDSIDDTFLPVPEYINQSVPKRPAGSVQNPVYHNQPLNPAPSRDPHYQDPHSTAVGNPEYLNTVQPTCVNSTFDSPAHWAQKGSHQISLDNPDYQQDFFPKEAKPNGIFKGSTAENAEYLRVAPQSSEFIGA
Chain of Ba/F3 De119/T790M/C797S EGFR triple mutant cell line (P00533 with tags, fused parts or gaps DEL746-750/T790M/C797S, form open): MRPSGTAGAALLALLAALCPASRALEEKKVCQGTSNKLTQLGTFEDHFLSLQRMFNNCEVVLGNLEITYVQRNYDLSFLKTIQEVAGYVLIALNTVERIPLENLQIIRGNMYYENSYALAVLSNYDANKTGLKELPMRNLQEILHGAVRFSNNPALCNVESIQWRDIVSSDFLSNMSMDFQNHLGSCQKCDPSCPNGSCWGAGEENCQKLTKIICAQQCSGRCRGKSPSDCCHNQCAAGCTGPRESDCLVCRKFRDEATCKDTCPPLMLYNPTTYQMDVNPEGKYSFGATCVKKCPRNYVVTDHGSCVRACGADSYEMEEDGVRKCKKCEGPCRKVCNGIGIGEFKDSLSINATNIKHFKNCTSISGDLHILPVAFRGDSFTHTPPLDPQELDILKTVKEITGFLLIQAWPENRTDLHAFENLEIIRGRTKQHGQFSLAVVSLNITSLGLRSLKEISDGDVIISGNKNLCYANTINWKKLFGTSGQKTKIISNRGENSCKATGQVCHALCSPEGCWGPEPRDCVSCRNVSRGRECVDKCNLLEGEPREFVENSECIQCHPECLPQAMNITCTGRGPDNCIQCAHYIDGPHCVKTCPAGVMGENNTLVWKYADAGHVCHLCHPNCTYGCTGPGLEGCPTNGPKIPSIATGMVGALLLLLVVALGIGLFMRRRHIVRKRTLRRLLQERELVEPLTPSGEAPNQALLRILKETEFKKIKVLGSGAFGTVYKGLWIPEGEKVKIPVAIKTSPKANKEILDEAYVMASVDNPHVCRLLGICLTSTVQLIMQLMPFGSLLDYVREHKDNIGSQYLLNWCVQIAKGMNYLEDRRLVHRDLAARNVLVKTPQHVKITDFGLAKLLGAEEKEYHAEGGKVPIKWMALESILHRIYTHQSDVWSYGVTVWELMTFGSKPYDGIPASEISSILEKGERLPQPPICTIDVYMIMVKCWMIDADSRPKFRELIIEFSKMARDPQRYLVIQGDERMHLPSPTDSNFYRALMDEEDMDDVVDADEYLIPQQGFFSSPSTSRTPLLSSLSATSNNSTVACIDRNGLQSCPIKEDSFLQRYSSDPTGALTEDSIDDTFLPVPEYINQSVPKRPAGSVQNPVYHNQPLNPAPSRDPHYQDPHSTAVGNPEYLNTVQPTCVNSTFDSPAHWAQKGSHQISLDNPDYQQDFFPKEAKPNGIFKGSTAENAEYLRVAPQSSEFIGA
T2 sequence (P00533 25-1210 T790M/C797S/L858R): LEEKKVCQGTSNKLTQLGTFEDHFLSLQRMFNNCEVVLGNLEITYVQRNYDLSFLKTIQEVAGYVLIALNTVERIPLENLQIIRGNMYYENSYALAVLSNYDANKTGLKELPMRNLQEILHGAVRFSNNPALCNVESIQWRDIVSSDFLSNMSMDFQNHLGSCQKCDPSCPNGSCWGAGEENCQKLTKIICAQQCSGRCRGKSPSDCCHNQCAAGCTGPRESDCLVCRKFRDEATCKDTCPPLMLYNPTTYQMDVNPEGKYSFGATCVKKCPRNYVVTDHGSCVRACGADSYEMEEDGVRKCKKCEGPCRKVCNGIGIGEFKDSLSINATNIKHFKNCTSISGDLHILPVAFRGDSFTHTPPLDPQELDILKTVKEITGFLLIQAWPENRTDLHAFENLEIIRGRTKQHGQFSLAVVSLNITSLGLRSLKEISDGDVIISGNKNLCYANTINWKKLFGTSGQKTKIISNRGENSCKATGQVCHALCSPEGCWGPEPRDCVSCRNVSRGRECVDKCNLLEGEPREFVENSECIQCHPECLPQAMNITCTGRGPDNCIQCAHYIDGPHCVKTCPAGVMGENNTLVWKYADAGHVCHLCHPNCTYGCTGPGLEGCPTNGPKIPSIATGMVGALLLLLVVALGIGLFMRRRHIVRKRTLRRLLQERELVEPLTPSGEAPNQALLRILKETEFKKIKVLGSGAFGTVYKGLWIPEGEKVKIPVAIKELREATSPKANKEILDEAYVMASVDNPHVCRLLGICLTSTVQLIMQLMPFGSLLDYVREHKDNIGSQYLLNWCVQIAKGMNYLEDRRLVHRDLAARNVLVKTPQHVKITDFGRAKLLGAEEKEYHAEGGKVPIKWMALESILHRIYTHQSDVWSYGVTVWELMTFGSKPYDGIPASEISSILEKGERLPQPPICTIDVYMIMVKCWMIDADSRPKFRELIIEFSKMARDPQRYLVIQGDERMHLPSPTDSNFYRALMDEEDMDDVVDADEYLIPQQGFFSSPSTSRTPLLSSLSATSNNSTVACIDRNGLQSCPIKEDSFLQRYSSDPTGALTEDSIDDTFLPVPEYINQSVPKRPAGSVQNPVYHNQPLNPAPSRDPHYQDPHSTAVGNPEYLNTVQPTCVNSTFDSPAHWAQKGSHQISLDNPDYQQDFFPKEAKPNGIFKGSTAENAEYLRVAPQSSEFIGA
T1 sequence (P00533 25-1210): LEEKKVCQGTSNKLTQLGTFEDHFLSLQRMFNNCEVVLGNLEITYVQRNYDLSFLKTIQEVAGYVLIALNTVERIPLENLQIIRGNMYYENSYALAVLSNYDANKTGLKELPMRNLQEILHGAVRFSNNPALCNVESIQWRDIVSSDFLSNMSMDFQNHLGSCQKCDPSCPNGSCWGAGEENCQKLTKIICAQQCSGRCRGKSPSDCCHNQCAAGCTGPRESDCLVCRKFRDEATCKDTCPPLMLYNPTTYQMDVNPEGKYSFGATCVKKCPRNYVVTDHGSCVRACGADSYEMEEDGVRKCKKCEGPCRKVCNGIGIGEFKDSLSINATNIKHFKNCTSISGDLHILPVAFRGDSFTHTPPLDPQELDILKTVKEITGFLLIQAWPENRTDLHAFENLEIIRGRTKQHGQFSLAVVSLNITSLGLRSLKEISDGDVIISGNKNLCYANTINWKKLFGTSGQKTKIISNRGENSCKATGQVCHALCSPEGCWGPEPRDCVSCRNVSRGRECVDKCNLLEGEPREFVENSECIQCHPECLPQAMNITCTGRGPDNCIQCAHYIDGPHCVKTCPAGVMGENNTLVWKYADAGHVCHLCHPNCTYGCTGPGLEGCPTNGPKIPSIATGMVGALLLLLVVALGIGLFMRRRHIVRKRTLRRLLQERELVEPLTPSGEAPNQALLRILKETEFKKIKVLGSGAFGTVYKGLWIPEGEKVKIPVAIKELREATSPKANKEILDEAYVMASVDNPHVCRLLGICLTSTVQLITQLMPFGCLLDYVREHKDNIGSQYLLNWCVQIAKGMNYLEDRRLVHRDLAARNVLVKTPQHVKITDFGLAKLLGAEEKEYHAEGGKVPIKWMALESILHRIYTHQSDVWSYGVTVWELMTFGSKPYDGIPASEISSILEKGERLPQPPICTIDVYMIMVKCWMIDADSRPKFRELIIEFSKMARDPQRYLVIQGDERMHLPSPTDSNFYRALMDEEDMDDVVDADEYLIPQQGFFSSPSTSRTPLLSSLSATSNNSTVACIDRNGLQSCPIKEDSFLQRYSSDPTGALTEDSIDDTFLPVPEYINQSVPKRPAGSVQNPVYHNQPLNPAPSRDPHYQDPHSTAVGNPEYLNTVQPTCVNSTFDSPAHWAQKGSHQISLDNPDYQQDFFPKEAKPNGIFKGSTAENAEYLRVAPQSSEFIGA

Regarding `COc1cc(N2CCN(C)C(CF)C2)c(-c2cnn(C)c2)cc1Nc1ncc(Br)c(Nc2ccc3nccnc3c2P(C)(C)=O)n1` (stereo not shown) [compound 153], the IC50 at wild-type EGFR is 3.02 nM; in assay [1] (Homo sapiens, A-431, 72 h) it was 61.9 nM; in assay [2] it was 0.22 nM. Moreover, the GI50 in assay [3] is 2.89 nM; in assay [4], 1.03 nM.
For `COc1cc(N2CCN(CCC(F)F)CC2)c(-c2cnn(C)c2)cc1Nc1ncc(Br)c(Nc2ccc3nccnc3c2P(C)(C)=O)n1` [compound 222, (6-((5-Bromo-2-((4-(4-(3,3-difluoropropyl)piperazin-1-yl)-2-methoxy-5-(1-methyl-1H-pyrazol-4-yl)phenyl)amino)pyrimidin-4-yl)amino)quinoxalin-5-yl)dimethylphosphine oxide], in that order: 4.22 nM, 70.4 nM, 0.3 nM, 2.02 nM and 1.22 nM.
For `COC[C@@H]1CN(c2cc(OC)c(Nc3ncc(Br)c(Nc4ccc5nccnc5c4P(C)(C)=O)n3)cc2-c2cnn(C)c2)CCO1` [compound 127], in that order: 2.83 nM, 170 nM, 0.24 nM, 4.18 nM and 0.59 nM.
Consider `COc1cc(N2CCC(N(C)C)C2)c(-c2cnn(C)c2)cc1Nc1ncc(Br)c(Nc2ccc3nccnc3c2P(C)(C)=O)n1` (stereo not shown) [compound 10], for which the IC50 at wild-type EGFR was found to be 4.55 nM; in assay [1] (Homo sapiens, A-431, 72 h), 47 nM; in assay [2], 0.1 nM. Also, the GI50 is 10.7 nM in assay [3] and 6.06 nM in assay [4].
For `COc1c(Nc2ncc(Br)c(Nc3ccc4nccnc4c3P(C)(C)=O)n2)cc(-c2cnn(C)c2)c(N2CCOCC2)c1F` [compound 23], in that order: 40.3 nM, 195 nM, 1.92 nM, 30.3 nM and 8.67 nM.
Consider `COc1cc(N2CCN(C(N)=O)CC2)c(-c2cnn(C)c2)cc1Nc1ncc(Br)c(Nc2ccc3nccnc3c2P(C)(C)=O)n1` [compound 112], for which the IC50 on wild-type EGFR came out at 0.92 nM; in assay [1] (Homo sapiens, A-431, 72 h), 1100 nM; in assay [2] it was 0.26 nM. The GI50 is 161 nM in assay [3] and 57 nM in assay [4].
The matching figures for `COc1cc(N2CCN(C)CC2)c(-c2cnn(C)c2)cc1Nc1ncc(Br)c(Nc2ccc3nccnc3c2P(C)(C)=O)n1` [Compound 6]: 0.17 nM, 24.5 nM, under 0.05 nM, 5.96 nM and 1.99 nM.
For `COc1cc(N2CCC(N3CCN(C)CC3)C(F)C2)c(-c2cnn(C)c2)cc1Nc1ncc(Br)c(Nc2ccccc2N(C)S(=O)(=O)C2CC2)n1` (stereo not shown) [compound 211], in that order: 10.9 nM, 354 nM, 0.61 nM, 24.8 nM and 14.3 nM.
The matching figures for `COc1cc(N2CCN3CCC[C@@H]3C2)c(-c2cnn(C)c2)cc1Nc1ncc(Br)c(Nc2ccc3nccnc3c2P(C)(C)=O)n1` [compound 176]: 3.26 nM, 61.9 nM, 0.34 nM, 5.96 nM and 2.97 nM.
As to `COc1cc(N2CCN3CCCC[C@H]3C2)c(-c2cnn(C)c2)cc1Nc1ncc(Br)c(Nc2ccc3nccnc3c2P(C)(C)=O)n1` [compound 166], the IC50 was 3.81 nM at wild-type EGFR; 92.1 nM in assay [1] (Homo sapiens, A-431, 72 h); 0.48 nM in assay [2]. Also, the results for the GI50 in assay [3] and in assay [4] were 5.05 nM and 1.58 nM, respectively.
As for `COc1cc(N2CC(C)OC(C)C2)c(-c2cnn(C)c2)cc1Nc1ncc(Br)c(Nc2cc3c(cc2P(C)(C)=O)CC3)n1` (racemic) [compound 137], the IC50 on wild-type EGFR is 170 nM; in assay [1] (72 hours), 1500 nM; in assay [2] it was 9.81 nM. Further, the GI50 in assay [3] is 77.8 nM; in assay [4], 27.1 nM.
For the compound `COc1cc(NC(C)C(F)(F)F)c(-c2cnn(C)c2)cc1Nc1ncc(Br)c(Nc2ccc3nccnc3c2P(C)(C)=O)n1` (stereo not shown) [compound 154], the IC50 was found to be 36.9 nM on wild-type EGFR; 469 nM in assay [1] (Homo sapiens, A-431, 72 h); 0.86 nM in assay [2]. Besides, the GI50 in assay [3] was found to be 15.4 nM; in assay [4], 5.26 nM.
The matching figures for `COc1cc(N2CCC3(CC2)CN(C(C)C)CC(C)(C)O3)c(-c2cnn(C)c2)cc1Nc1ncc(Br)c(Nc2ccc3nccnc3c2P(C)(C)=O)n1` [compound 224, (6-((5-Bromo-2-((4-(4-isopropyl-2,2-dimethyl-1-oxa-4,9-diazaspiro [5.5]undecane-9-yl)-2-methoxy-5-(1-methyl-1H-pyrazol-4-yl)phenyl)amino)pyrimidin-4-yl)amino)quinoxalin-5-yl)dimethylphosphine oxide]: 10.7 nM, 336 nM, 4.31 nM, 13.2 nM and 8.88 nM.
For `COc1cc(N2CC(C)OC(C)C2)c(-c2cnn(C)c2)cc1Nc1ncc(Br)c(Nc2ccc3nccnc3c2P(C)(C)=O)n1` (racemic) [compound 135, (6-((5-bromo-2-((4-(trans-2,6-dimethylmorpholinyl)-2-methoxy-5-(1-methyl-1H-pyrazol-4-yl)phenyl)amino))pyrimidin-4-yl)amino)quinoxalin-5-yl)dimethylphosphine oxide], in that order: 15.6 nM, 402 nM, 0.47 nM, 13.3 nM and 3.68 nM.
For `COc1cc(N2CCN3CCOCC3C2)c(-c2cnn(C)c2)cc1Nc1ncc(Br)c(Nc2ccc3nccnc3c2P(C)(C)=O)n1` (stereo not shown) [compound 161], in that order: 2.71 nM, 154 nM, 0.39 nM, 6.39 nM and 2.36 nM.
Turning to `COc1cc(N2C[C@@H]3C[C@H]2CO3)c(-c2cnn(C)c2)cc1Nc1ncc(Br)c(Nc2ccc3nccnc3c2P(C)(C)=O)n1` [compound 107], the IC50 at wild-type EGFR was determined as 26.4 nM; in assay [1] (Homo sapiens, A-431, 72 h), 380 nM; in assay [2], 1.3 nM. In addition, the GI50 in assay [3] was 30.9 nM; in assay [4] it was 11.2 nM.
For `COc1cc(N2CCC(C)(OC)CC2)c(-c2cnn(C)c2)cc1Nc1ncc(Cl)c(Nc2ccc3nccnc3c2P(C)(C)=O)n1` [compound 239], in that order: 7.57 nM, 141 nM, 1.6 nM, 4.61 nM and 2.1 nM.
For `COc1cc(N2CCC3(CCN(C)CC3)CC2)c(-c2cnn(C)c2)cc1Nc1ncc(Br)c(Nc2ccccc2N(C)S(=O)(=O)C2CC2)n1` [compound 183, N-(2-((5-Bromo-2-((2-methoxy-5-(1-methyl-1H-pyrazol-4-yl)-4-)(9-methyl-3,9-diazaspiro[5.5]undecan-3-yl)phenyl)amino)pyrimidin-4-yl)amino)phenyl-N-methylcyclopropanesulfonamide], in that order: 12.2 nM, 246 nM, 1.12 nM, 27 nM and 14.4 nM.
For `COc1ncc(-c2cnn(C)c2)cc1Nc1ncc(Br)c(Nc2ccc3nccnc3c2P(C)(C)=O)n1` [compound 30], in that order: 55.7 nM, 284 nM, 1.01 nM, 62.6 nM and 12.1 nM.
As for `COc1cc(N2CCOCC2)c(-c2cnn(C)c2)cc1Nc1ncc(C(F)(F)F)c(Nc2ccc3nccnc3c2P(C)(C)=O)n1` [compound 25], the IC50 on wild-type EGFR was determined as 18.7 nM; in assay [1] (Homo sapiens, A-431, 72 h) it was 159 nM; in assay [2] it was 0.19 nM. Besides, the GI50 turned out to be 8.64 nM in assay [3] and 2.41 nM in assay [4].
The matching figures for `COc1cc(N2CCOCC2)c(-c2cnn(C)c2)cc1Nc1ncc(Br)c(Nc2ccc3ncccc3c2P(C)(C)=O)n1` [compound 160]: 2.32 nM, 208 nM, 0.26 nM, 9.04 nM and 1.56 nM.
For `COc1cc(N2CCOCC2)c(-c2cnn(C)c2)nc1Nc1ncc(C)c(Nc2ccc3nccnc3c2P(C)(C)=O)n1` [compound 71], in that order: 38.9 nM, over 10000 nM, 1.7 nM, 316 nM and 99.4 nM.
Turning to `COc1cc(N2CCCN(C)CC2)c(-c2cnn(C)c2)cc1Nc1ncc(Br)c(Nc2ccc3nccnc3c2P(C)(C)=O)n1` [compound 12], the IC50 on wild-type EGFR was determined as 1.59 nM; in assay [1] (Homo sapiens, A-431, 72 h), 76.1 nM; in assay [2] it was 0.05 nM. Also, the results for the GI50 in assay [3] and in assay [4] were 45.9 nM and 6.32 nM, respectively.
